Activity calls are given as the source filed them. The rule behind the calls is not given here.
Legend:
Vas deferens = assay: Adrenergic activity in reserpine-pretreated albino Sprague-Dawley rat vas deferens assessed as potentiation of norepinephrine-induced contractile response at 30 uM; format: functional, tissue-based
Rattus norvegicus [1] = organism: Rattus norvegicus; assay: Adrenergic activity in albino Sprague-Dawley rat vas deferens assessed as contractile response at 0.3 mM measured after 1 to 5 mins; format: functional, tissue-based
Rattus norvegicus [2] = organism: Rattus norvegicus; assay: Adrenergic activity in reserpine-pretreated albino Sprague-Dawley rat vas deferens assessed as contractile response; format: functional, tissue-based
[3] = substrate: NCC(O)/C1=C/CC/C=C\CC1; assay: (§1) Activity at PNMT in bovine adrenal medulla using DL-beta-phenylethanolamine and SAM-14CH3 as substrate by Michaelis-Menten analysis; details: Bos taurus
[4] = substrate: NCC(O)c1ccccc1; assay: as §1; details: Bos taurus
[5] = substrate: NCC(O)C1CCCCCCC1; assay: as §1; details: Bos taurus
[6] = substrate: NCC(O)C1CCCCC1; assay: as §1; details: Bos taurus
[7] = substrate: NCC(O)C1CC=CCC1; assay: as §1; details: Bos taurus
[8] = substrate: NCC(O)C1=C/CCCC/C=C\1; assay: as §1; details: Bos taurus
[9] = substrate: NCC(O)C1=C/C=C\C=C/C=C\1; assay: as §1; details: Bos taurus
[10] = substrate: NCC(O)/C1=C/CC/C=C\CC1; assay: (§2) Activity at PNMT in bovine adrenal medulla using DL-beta-phenylethanolamine and SAM-14CH3 as substrate measured per mg of protein by Michaelis-Menten analysis; details: Bos taurus
[11] = substrate: NCC(O)c1ccccc1; assay: as §2; details: Bos taurus
[12] = substrate: NCC(O)C1CCCCCCC1; assay: as §2; details: Bos taurus
[13] = substrate: NCC(O)C1CCCCC1; assay: as §2; details: Bos taurus
[14] = substrate: NCC(O)C1CC=CCC1; assay: as §2; details: Bos taurus
[15] = substrate: NCC(O)C1=C/CCCC/C=C\1; assay: as §2; details: Bos taurus
[16] = substrate: NCC(O)C1=C/C=C\C=C/C=C\1; assay: as §2; details: Bos taurus

Row | Molecule | Activity (Vas deferens) | Activity (Rattus norvegicus [1]) | Activity (Rattus norvegicus [2]) | other results
1 | NCC(O)c1ccccc1 (stereo not given) | Active | Active | inactive | –
2 | NCC(O)C1CCCCC1 (stereo not given) | Active | Active | inactive | –
3 | NCC(O)C1CC=CCC1 (stereo not given) | Active | Active | inactive | –
4 | NCC(O)/C1=C/CC/C=C\CC1 (stereo not given) | – | Active | inactive | –
5 | NCC(O)C1=C/C=C\C=C/C=C\1 (stereo not given) | Active | Active | inactive | –
6 | NCC(O)C1CCCCCCC1 (stereo not given) | Active | Active | inactive | –
7 | C[C@@H](N)[C@@H](O)c1ccccc1 | Active | Active | inactive | –
8 | NCC(O)C1/C=C\CCCCC1 (stereo not given) | Active | Active | inactive | –
9 | NCC(O)C1=C/CCCC/C=C\1 (stereo not given) | Active | Active | inactive | –
10 | Phenylethanolamine N-methyltransferase (Bos taurus), P10938 (protein) MSGTDRSQAAGAVPDSDPGLAAVSSAYQRFEPRAYLRNNYAPPRGDLSCPDGVGPWKLRCLAQTFATGEVSGRTLIDIGSGPTIYQLLSACAHFEDITMTDFLEVNRQELRLWLREEPGAFDWSVYSQHVCLIEGKGESWQEKECQLRARVKRILPIDVHRPQPLGAGGLAPLPADALVSAFCLEAVSPDLASFQRALDHITTLLRPGGHLLLIGALEESWYLAGEARLAVVPVREEEVREALVRTATRCGICARTPMPAHLQTGVDDVKGIFFTRAQKKVGV | – | – | – | Km [3]: 155 µM; Km [4]: 136 µM; Km [5]: 26 µM; Km [6]: 40 µM; Km [7]: 57 µM; Km [8]: 128 µM; Km [9]: 430 µM; Vmax [10]: 2.75 nmol/min; Vmax [11]: 2.1 nmol/min; Vmax [12]: 0.96 nmol/min; Vmax [13]: 0.99 nmol/min; Vmax [14]: 1.37 nmol/min; Vmax [15]: 2.61 nmol/min; Vmax [16]: 1.73 nmol/min

— ChEMBL document CHEMBL3272206, “Importance of the aromatic ring in adrenergic amines. 2. Synthesis and adrenergic activity of some nonaromatic six- and eight-membered ring analogs of beta-phenylethanolamine” (J Med Chem, 1976)
